Experimental data published in patent US10377770B2 (Novartis AG, priority 2015, dated 2019).

Biological target: C-Raf FL (full length CRAF with Y340E and Y341E activating mutations, co-expressed with h14-3-3 zeta) (Homo sapiens (Human), UniProt P04049, Y340E/Y341E)
Assay: In vitro Raf activity determination, AlphaScreen p-MEK readout, c-Raf (C-Raf FL)
Type: biochemical
Settings: c-Raf approximately 4 nM, ATP 1 μM, pre-incubation 60 minutes, reaction 1 hour
Summary of the method: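 Phosphorylation of kinase-dead biotinylated MEK1 (~10 nM) by C-Raf FL (~4 nM) read by AlphaScreen luminescence with anti-phospho-MEK1/2 after EDTA stop. ATP was 1 μM, with a 1 h reaction at room temperature. Compounds were pre-incubated with enzyme and substrate for 60 min in Tris/MgCl2 buffer, pH 7.5.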

Chain of C-Raf FL (full length CRAF with Y340E and Y341E activating mutations, co-expressed with h14-3-3 zeta) (P04049 whole entry Y340E/Y341E): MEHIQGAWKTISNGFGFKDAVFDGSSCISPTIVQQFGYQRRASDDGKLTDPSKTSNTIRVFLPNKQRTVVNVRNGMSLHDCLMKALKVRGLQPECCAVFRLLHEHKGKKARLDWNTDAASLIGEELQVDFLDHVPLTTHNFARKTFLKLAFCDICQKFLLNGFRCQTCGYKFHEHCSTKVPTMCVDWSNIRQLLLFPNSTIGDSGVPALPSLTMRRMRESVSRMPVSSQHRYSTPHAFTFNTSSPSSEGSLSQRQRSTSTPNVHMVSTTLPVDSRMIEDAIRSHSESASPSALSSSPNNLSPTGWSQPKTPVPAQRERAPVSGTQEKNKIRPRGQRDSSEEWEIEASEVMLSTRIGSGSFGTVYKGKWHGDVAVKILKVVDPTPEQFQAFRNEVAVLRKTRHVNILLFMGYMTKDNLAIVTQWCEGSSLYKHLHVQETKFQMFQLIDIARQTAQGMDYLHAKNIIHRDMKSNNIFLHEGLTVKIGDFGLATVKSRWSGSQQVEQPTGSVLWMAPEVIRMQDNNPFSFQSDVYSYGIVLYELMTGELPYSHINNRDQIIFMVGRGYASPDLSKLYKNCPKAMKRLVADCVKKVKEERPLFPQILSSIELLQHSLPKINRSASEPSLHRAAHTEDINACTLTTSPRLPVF
Chain of C-Raf FL (full length CRAF with Y340E and Y341E activating mutations, co-expressed with h14-3-3 zeta) (P63104 whole entry partner): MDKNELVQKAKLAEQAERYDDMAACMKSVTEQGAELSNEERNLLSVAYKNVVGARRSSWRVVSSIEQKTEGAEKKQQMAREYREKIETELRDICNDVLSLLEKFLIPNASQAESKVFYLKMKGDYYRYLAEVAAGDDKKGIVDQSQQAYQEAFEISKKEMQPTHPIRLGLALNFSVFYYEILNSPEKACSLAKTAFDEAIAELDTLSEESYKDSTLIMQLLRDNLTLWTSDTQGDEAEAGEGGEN

| SMILES | IC50 [nM] |
| --- | --- |
| CCN1C(=O)C2CCOCCC2c2cc(-c3cc(NC(=O)c4ccnc(C(F)(F)F)c4)ccc3C)cnc21 (stereo not drawn) [Example 247, N-(3-((5a, 11b-cis)-7-ethyl-6-oxo-1,2,4,5,5a,6,7,11b-octahydrooxepino 4,5-c][1,8]naphthyridin-10-yl)-4-methylphenyl)-2-(trifluoromethyl) isonicotinamide] | 0.3 |
| CCN1C(=O)C2CCOCCC2c2cc(-c3cc(NC(=O)c4ccnc(C(F)(F)F)c4)ccc3C)cnc21 (stereo not drawn) [Example 248] | 0.5 |
| CCN1C(=O)C2CCOCCC2c2cc(-c3cc(NC(=O)c4ccnc(C(F)(F)F)c4)ccc3C)cnc21 (stereo not drawn) [Example 249, N-(3-((5a, 11b- trans)-7-ethyl-6-oxo-1,2,4,5,5a,6,7,11boctahydrooxepino [4,5-c][1,8]naphthyridin-4,5-10-yl)-4-methylphenyl)-2-(trifluoromethyl) isonicotinamide] | 0.1 |
| CCN1C(=O)C2CCOCCC2c2cc(-c3cc(NC(=O)c4cccc(C(F)(F)F)c4)cnc3C)cnc21 (stereo not drawn) [Example 250, N-(5-((5a, 11b- trans)-7-ethyl-6-oxo-1,2,4,5,5a,6,7,11b-octahydrooxepino [4,5-c][1,8]naphthyridin-10-yl)-6-methylpyridin-3-yl)-3-(trifluoromethyl) benzamide] | 0.3 |
| CCN1C(=O)C2CCOCCC2c2cc(-c3cc(NC(=O)c4ccnc(C(C)(C)F)c4)cnc3C)cnc21 (stereo not drawn) [Example 251, N-(5-((5a, 11b- trans)-7-ethyl-6-oxo-1,2,4,5,5a, 6,7,11b-octahydrooxepino [4,5-c[1,8]naphtliyridin-10-yl)-6-methylpyridin-3-yl)-2-(2-fluoropropan-2-yl)isonicotinamide] | 0.2 |
| CCN1C(=O)[C@@H]2COCC[C@H]2c2cc(-c3cc(NC(=O)c4ccnc(C(F)(F)F)c4)cnc3C)cnc21 [Example 252, N-(5-((4aS, 10bR)-6-ethyl-5-oxo-2,4,4a,5,6,10b-hexahydro-1H-pyrano[3,4-c][1,8]naphthyridin-9-yl)-6-methylpyridin-3-yl)-2-(trifluoromethyl) isonicotinamide] | 0.1 |
| CCN1C(=O)[C@@H]2COCC[C@H]2c2cc(-c3cc(NC(=O)c4ccnc(C(F)(F)F)c4F)ccc3C)cnc21 [Example 253, N-(3-((4aS, 10bR)-6-ethyl-5-oxo-2,4,4a,5,6,10b-hexahydro-1H-pyrano[3,4-c][1,8]naphthyridin 9-yl)-4-methylphenyl)-3-fluoro-2-(trifluoromethyl) isonicotinamide] | 3.2 |
| CCN1C(=O)[C@@H]2COCC[C@H]2c2cc(-c3cc(NC(=O)c4ccnc(C(C)(C)F)c4)ccc3C)cnc21 [Example 254, N-(3-((4aS, 10bR)-6-ethyl-5-oxo-2,4,4a,5,6,10b-hexahydro-1H-pyrano[3,4-c][1,8]naphthyridin-9-yl)-4-methylphenyl)-2-(2-fluoropropan-2-yl)isonicotinamide] | 0.2 |
| CCN1C(=O)[C@H]2COCC[C@@H]2c2cc(-c3cc(NC(=O)c4cccc(C(F)(F)F)c4F)cnc3C)cnc21 [Example 255, N-(5-((4aR, 10bS)-6-ethyl-5-oxo-2,4,4a,5,6,10b-hexahydro-1H-pyrano[3,4-c][1,8]naphthyridin-9-yl)-6-methylpyridin-3-yl)-2-fluoro-3-(trifluoromethyl) benzamide] | 0.8 |
| CCN1C(=O)[C@@H]2COCC[C@H]2c2cc(-c3cc(NC(=O)c4cccc(C(F)(F)F)c4F)cnc3C)cnc21 [Example 256, N-(5-((4aS, 10bR)-6-ethyl-5-oxo-2,4,4a,5,6,10b-hexahydro-1H-pyrano[3,4-c][1,8]naphthyridin-9-yl)-6-methylpyridin-3-yl)-2-fluoro-3-(trifluoromethyl) benzamide] | 0.1 |
| Cc1ncc(NC(=O)c2cccc(C(F)(F)F)c2)cc1-c1cnc2c(c1)[C@@H]1CCOC[C@H]1C(=O)N2CCO [Example 259, N-(5-((4aS, 10bR)-6-(2-hydroxyethyl)-5-oxo-2,4,4a,5,6,10b-hexahydro-1H-pyrano[3,4-c][1,8]naphthyridin-9-yl)-6-methylpyridin-3-yl)-3-(trifluoromethyl) benzamide] | 0.6 |
| Cc1ncc(NC(=O)c2ccnc(C(C)(C)F)c2)cc1-c1cnc2c(c1)[C@@H]1CCOC[C@H]1C(=O)N2CCO [Example 260, 2-(2-fluoropropan-2-yl)-N-(5-((4aS, 10bR)-66-(2-hydroxyethyl)-5-oxo-2,4,4a,5,6,10b-hexahydro-1H-pyrano[3,4-c][1,8]naphthyridin-9-yl)-6-methylpyridin-3-yl)isonicotinamide] | 0.1 |
| Cc1ccc(NC(=O)c2ccnc(C(F)(F)F)c2)cc1-c1cnc2c(c1)[C@@H]1CCOC[C@H]1C(=O)N2C(C)C [Example 261, N-(3-((4aS, 10bR)-6-isopropyl-5-oxo-2,4,4a,5,6,10b-hexahydro-1H-pyrano[3,4-c][1,8]naphthyridin-9-yl)-4-methylphenyl)-2 (trifluoromethyl) isonicotinamide] | 0.2 |
| Cc1ncc(NC(=O)c2cccc(C(F)(F)F)c2)cc1-c1cnc2c(c1)[C@@H]1CCOC[C@H]1C(=O)N2C(C)C [Example 262, N-(5-((4aS, 10bR)-6-isopropyl-5-oxo-2,4,4a,5,6,10b-hexahydro-1H-pyrano[3,4-c][1,8]naphthyridin-9-yl)-6-methylpyridin-3-yl)-3-(trifluoromethyl) benzamide] | 0.7 |
| Cc1ccc(NC(=O)c2ccnc(C(C)(F)F)c2)cc1-c1cnc2c(c1)[C@@H]1CCOC[C@H]1C(=O)N2C(C)C [Example 263, 2-(1,1-difluoroethyl)-N-(3-((4aS, 10bR)-6-isopropyl-5-oxo-2,4,4a,5,6,10b-hexahydro-1H-pyrano[3,4-c][1,8]naphthyridin-9-yl)-4-methylphenyl) isonicotinamide] | 0.3 |
| Cc1ccc(NC(=O)c2ccnc(C(C)(F)F)c2)cc1-c1cnc2c(c1)[C@@H]1CCOC[C@H]1C(=O)N2CC(F)F [Example 265, 2-(1,1-difluoroethyl)-N-(3-((4aS, 10bR)-6-(2,2-difluoroethyl)-5-oxo-2,4,4a,5,6,10b-hexahydro-1H-pyrano[3,4-c][1,8]naphthyridin-9-yl)4-methylphenyl) isonicotinamide] | 0.1 |
| Cc1ncc(NC(=O)c2cccc(C(F)(F)F)c2)cc1-c1cnc2c(c1)[C@@H]1CCOC[C@H]1C(=O)N2CC(F)F [Example 266, N-(5-((4aS, 10bR)-6-(2,2-difluoroethyl)-5-oxo-2,4,4a,5,6,10b-hexahydro-1H-pyrano[3,4-c][1,8]naphthyridin-9-yl)-6-methylpyridin-3-yl)-3-(trifluoromethyl) benzamide] | 0.3 |
| CCN1C(=O)[C@@H]2[C@H]3COC[C@H]3[C@@H]2c2cc(-c3cc(NC(=O)c4ccnc(C(C)(F)F)c4)ccc3C)cnc21 [Example 269, 2-(1,1-difluoroethyl)-N-(3-((6aS, 6bS, 9aS, 9bS)-5-ethyl-6-oxo-5,6,6a,6b,7,9,9a,9b-octahydrofuro[3′,4′: 3,4]cyclobuta[1,2-c][1,8]naphthyridin-2-yl)-4-methylphenyl) isonicotinamide] | 0.3 |
| CCN1C(=O)[C@H]2[C@@H]3COC[C@@H]3[C@H]2c2cc(-c3cc(NC(=O)c4ccnc(C(F)(F)F)c4)ccc3C)cnc21 [Example 270, N-(3-((6aR, 6bR, 9aR, 9bR)-5-ethyl-6-oxo-5,6,6a,6b,7,9,9a,9b-octahydrofuro[3′,4′: 3,4]cyclobuta[1,2-c][1,8]naphthyridin-2-yl)-4-methylphenyl)-2-(trifluoromethyl) isonicotinamide] | 0.2 |
| CCN1C(=O)[C@H]2[C@@H]3COC[C@@H]3[C@H]2c2cc(-c3cc(NC(=O)c4ccnc(C(C)(F)F)c4)ccc3C)cnc21 [Example 271, 2-(1,1-difluoroethyl)-N-(3-((6aR, 6bR, 9aR, 9bR)-5-ethyl-6-oxo-5,6,6a,6b,7,9,9a,9b-octahydrofuro[3′,4′: 3,4]cyclobuta[1,2-c][1,8]naphthyridin 2-yl)-4-methylphenyl) isonicotinamide] | 0.2 |
| CCN1C(=O)[C@@H]2[C@H]3COC[C@H]3[C@@H]2c2cc(-c3cc(NC(=O)c4cccc(C(F)(F)F)c4)cnc3C)cnc21 [Example 272, N-(5-((6aS, 6bS, 9aS, 9bS)-5-ethyl-6-oxo-5,6,6a,6b,7,9,9a,9b-octahydrofuro[3′,4′: 3,4]cyclobuta[1,2-c][1,8]naphthyridin-2-yl)-6-methylpyridin-3-yl)-3-(trifluoromethyl) benzamide] | 0.5 |
| CCN1C(=O)[C@@H]2[C@H]3COC[C@H]3[C@@H]2c2cc(-c3cc(NC(=O)c4ccnc(C(F)(F)F)c4F)ccc3C)cnc21 [Example 273, N-(3-((6aS, 6bS, 9aS, 9bS)-5-ethyl-6-oxo-5,6,6a,6b,7,9,9a,9b-octahydrofuro[3′,4′: 3,4]cyclobuta[1,2-c][1,8]naphthyridin-2-yl)-4-methylphenyl)-3-fluoro-2-(trifluoromethyl) isonicotinamide] | 0.2 |
| CCN1C(=O)[C@@H]2[C@H]3COC[C@H]3[C@@H]2c2cc(-c3cc(NC(=O)c4cncc(C(F)(F)F)c4)ccc3C)cnc21 [Example 274, N-(3-((6aS, 6bS, 9aS, 9bS)-5-ethyl-6-oxo-5,6,6a,6b,7,9,9a,9b-octahydrofuro[3′,4′: 3,4]cyclobuta[1,2-c][1,8]naphthyridin-2-yl)-4-methylphenyl)-5-(trifluoromethyl) nicotinamide] | 0.5 |
| CCN1C(=O)[C@H]2[C@@H]3COC[C@@H]3[C@H]2c2cc(-c3cc(NC(=O)c4cccc(C(F)(F)F)c4)cnc3C)cnc21 [Example 275, N-(5-((6aR, 6bR, 9aR, 9bR)-5-ethyl-6-oxo-5,6,6a,6b,7,9,9a,9b-octahydrofuro[3′,4′: 3,4]cyclobuta[1,2-c][1,8]naphthyridin-2-yl)-6-methylpyridin-3-yl)-3-(trifluoromethyl) benzamide] | 0.8 |
